Measurements published in US6024955A, “Peptides and monoclonal antibodies” (Toagosei Co. Ltd., priority 1995, dated 2000).

Tests used:
[1] = system: Human fibrosarcoma (HT-1080); assay: Antitumor test, joint use with an existing carcinostatic, HT-1080 in nude mice; conditions: mitomycin alone, 6 mg/kg, tail vein
Description: Human fibrosarcoma (HT-1080) subcutaneously subcultured in nude mice was cut out in a section of about 2 mm square and inoculated subcutaneously into 6 nude mice of another group using a trocar. On the next day of the inoculation, the existing carcinostatic mitomycin (3 mg/kg) or cisplatin (5 mg/kg) was injected into the tail vein once, and the monoclonal antibody of the invention was injected into the tail vein at a dose of 12.5 μg/mouse every 4 days from the next day of the transplantation.
In those groups which received an existing carcinostatic alone, 3 or 6 mg/kg of mitomycin or 5 or 10 mg/kg of cisplatin was administered in a similar manner as employed in the joint administration groups (i.e. every 4 days into the tail vein).
In the group which received the monoclonal antibody alone, 12.5 μg/mouse of the monoclonal antibody was administered similarly (i.e. every 4 days into the tail vein).
The tumor volume of each mouse was calculated by measuring the diameter of the tumor with the passage of time. At the same time, changes in body weight were also observed.

MV833 antibody = conditions: 20 μM peptide solution coated on plate
Description: The 67 peptides synthesized by the above procedures correspond to the entire region of human VPF 121. Therefore, by examining the reactivity of the 67 peptides with MV833 antibody, it is possible to identify the portion of VPF with which MV833 reacts. Then, the reactivity of the 67 peptides with MV833 antibody was examined by an enzyme immunoassay. Briefly, 20 μM peptide solutions each containing one of the 67 peptides were added to a 96-well NOS plate (Coaster) and left at room temperature for 2 hours. After each well was washed with 0.1% BSA-PBS 3 times, 2% BSA-PBS was added thereto and left at room temperature for 1 hour. After the removal of 2% BSA-PBS, MV833 (in 1% BSA-PBS solution) was added to the plate and left at room temperature for 1 hour. After each well was washed with 0.1% BSA-PBS 6 times, peroxidase-labelled sheep anti-mouse IgG (Amersham) (in 0.1% BSA-PBS) was added thereto and left at room temperature for 1 hour. After each well was washed with 0.1% BSA-PBS 6 times, 0.2 M Tris-citrate buffer (pH 5.2) containing 8.3 mg/ml orthophenylenediamine dihydrochloride and 0.01% hydrogen peroxide was added for coloring. The reaction was terminated by adding 2 N sulfuric acid and then absorbance (OD490/650) was measured.

| Compound | antitumor activity (tumor volume, FIG. 3) [1] | changes in body weight (FIG. 4) [1] | reactivity with MV833 antibody (absorbance OD490/650, FIG. 1) (MV833 antibody) |
| --- | --- | --- | --- |
| CO[C@@]12[C@H](COC(N)=O)C3=C(C(=O)C(C)=C(N)C3=O)N1C[C@@H]1N[C@@H]12 [mitomycin] | strong antitumor activity was observed | loss in body weight was also observed |  |
| FKPSCVPLMRCG [Peptide 32] |  |  | reacted strongly |
| KCECRPKKDRAR [Peptide 63] |  |  | reacted strongly |
| KPSCVPLMRCGG [Peptide 33] |  |  | reacted strongly |
| SFLQHNKCECRP [Peptide 60] |  |  | reacted strongly |
| YIFKPSCVPLMR [Peptide 31] |  |  | reacted strongly |
